Laboratory results published in US10413532B2, “Pharmaceutical compositions containing a PDE4 inhibitor and a PI3 delta or dual PI3 delta-gamma kinase inhibitor” (Rhizen Pharmaceuticals SA, priority 2012, dated 2019).

Tests used:
MMP-9 = MMP-9 release from PMA-induced THP-1 cells (gelatin zymography); format: cell-based, human; details: Homo sapiens; compound alone; THP-1 cells, PMA; read-out: IC50 for the reduction of MMP-9
Method: Gelatinase activity of MMP-9 was determined by zymography. Proteins in supernatant (after incubation of THP-1 cells with 50 ng PMA for 24 h) were separated on gels containing 0.1% gelatin (Sigma, USA). Gels were re-natured by incubation in 2.5% Triton X-100 for 30 min, incubated overnight in substrate buffer (50 mMTris-HCl, pH 7.5) containing 10 mM CaCl2 and 0.05% ZnCl2 at 37° C. and stained with Coomassie brilliant blue (0.5%). […] Molecular weight markers (Fermentas, Lithuania) were run with each gel. Band intensity was calculated using ImageJ 1.42 (NIH, USA).

pAkt (S473) = assay: phospho-Akt (S473) in differentiated U937 cells stimulated with cigarette smoke extract (SDS-PAGE); format: cell-based; details: Homo sapiens, U-937; compound alone; differentiated U937, CSE; read-out: IC50 of inhibition of Akt phosphorylation
Method: U-937 monocytes were differentiated into macrophages by incubation with 50 ng/ml PMA for 48 h. Cells were trypsinized and plated at a density of 100,000 per well and stimulated with CSE for 2 h in starvation media. Lysates were made using RIPA buffer and run by SDS-PAGE, transferred to PVDF membrane and probed with phospho-Akt (S473) antibody (Cell signaling, USA) followed by anti-rabbit IgG (Cell signaling, USA). Band intensity was calculated using ImageJ 1.42 (NIH, USA).

[1] = system: macrophage and neutrophil infiltration; assay: Chronic cigarette smoke induced cell infiltration in male Balb/c mice; format: in vivo; details: alone at 1 mg/kg oral; chronic CS, mouse
Method: Animals were acclimatized for seven days prior to the start of the experiment. Animals were randomly distributed to various groups based on their body weights. Mice were exposed to the mainstream smoke of 4 cigarettes from day 1 to day 11. Exposure to the smoke of each cigarette lasted for […] (each cigarette was completely burned in the first two minutes, followed by an air flow with animal ventilator) and were exposed for the next 20 min with fresh room air. After every second cigarette an additional break of 20 min with exposure to fresh room air was conducted. Control animals were exposed to the room air chamber. Test compound was administered by the oral route from day 6 to day 11 before 30 mins whole body smoke exposure. On day 12, 24 hours after the last cigarette smoke (CS) exposure animals were exsanguinated under anaesthesia, and the trachea was cannulated and the lungs were lavaged with 0.5 ml aliquots of heparinised PBS (1 unit/nil) four times through tracheal cannula (total volume 2 ml). Bronchioalveolar (BAL) collected was stored at 2-8° C. until assayed for total cell and differential leukocyte count. BAL fluid was centrifuged (500×g for 10 min) and the resulting cell pellet was resuspended in 0.5 ml of heparinised saline. The total number of white blood cells was determined in BAL fluid and blood using a blood cell counter and adjusted to 1×10^6 cell/ml. Differential cell count was calculated manually Forty microliters of the cell suspension was centrifuged using cytospin 3 to prepare a cell smear. The cell smear was stained with a blood staining solution for differentiation and microscopically observed by identifying each cell according to its morphological characteristics. The number of each cell type among 300 white blood cells in the cell smear was determined and expressed as a percentage, and the number of neutrophils and macrophages in each BAL fluid were calculated.

TNFα = assay: LPS induced TNFα in PBMC; format: cell-based; details: 10 nM alone, LPS
Method: PBMC (peripheral blood mononuclear cells) from whole blood were isolated by density gradient using Histopaque and incubated with the desired concentration of inhibitor for 15 minutes. LPS (1 μg/ml) was added and then incubated for 24 hours. The supernatant was collected and TNFα estimated using an eBioscience TNFα ELISA kit.
PBMC from whole blood were isolated by density gradient using Histopaque and incubated with the desired concentration of inhibitor for 15 minutes. LPS (1 μg/m1) was added and then incubated for 24 hours. The supernatant was collected and TNFα estimated using an eBioscience TNFα ELISA kit.

[2] = system: macrophage and neutrophil infiltration; assay: Acute cigarette smoke induced cell infiltration in male Balb/c mice; format: in vivo; details: acute CS, mouse
Method: Animals were acclimatized for seven days prior to the start of the experiment. Animals were randomly distributed to various groups based on their body weights. On day 1, mice were administered by test compound or vehicle by the oral route and after 30 mins test compound administration animals were placed in a whole body exposure box. The mice were exposed to the mainstream smoke of 6 cigarettes from day 1 to day 4. Exposure to the smoke of each cigarette lasted for 10 min (cigarettes were completely burned in the first two minutes and followed by an air flow with animal ventilator) followed by exposure for the next 20 min with fresh room air. After every second cigarette an additional break of 20 min with exposure to fresh room air was conducted. Control animals were exposed to the room air chamber. From day 1 to day 4 animals were administered test compound by the oral route. On day 5, 24 hours after the last cigarette smoke (CS) exposure. animals were exsanguinated under anaesthesia, and the trachea was cannulated and the lungs were lavaged with 0.5 ml aliquots of heparinised PBS (1 unit/ml) four times through a tracheal cannula (total volume 2 ml). Bronchioalveolar (BAL) collected was stored at 2-8° C. until assayed for total cell and differential leukocyte count. BAL fluid was centrifuged (500×g for 10 min) and the resulting cell pellet was resuspended in 0.5 ml of heparinised saline. The total number of white blood cells was determined in BAL fluid and blood using a blood cell counter and adjusted to 1×10^6 cell/ml. Differential cell count was calculated manually. Forty microliters of the cell suspension was centrifuged using cytospin 3 to prepare a cell smear. The cell smear was stained with a blood staining solution for differentiation and microscopically observed by identifying each cell according to its morphological characteristics. The number of each cell type among 300 white blood cells in the cell smear were determined and expressed as a percentage, and the number of neutrophils and macrophages in each BAL fluid were calculated.
The procedure for acute cigarette smoke induced cell infiltration in male Balb/c mice described in Example 1 was performed with Compound A1 and roflumilast

[3] = 3 mg/kg oral, dose-response study
[4] = combination study, alone at 3.5 mg/kg

SMILES: O=C(Nc1c(Cl)cncc1Cl)c1ccc(OC(F)F)c(OCC2CC2)c1 [Compound A, roflumilast, reference compound]
- IC50 (MMP-9): 577 nM
- IC50 (pAkt (S473)): 1930 nM
- inhibition of macrophage infiltration [1]: 6.30%
- inhibition of neutrophil infiltration [1]: 34.60%
- decrease of TNFα secretion (TNFα): 25%
- percent inhibition of macrophage infiltration ([2]; 1 mg/kg oral): 22.2%
- percent inhibition of neutrophil infiltration ([2]; 1 mg/kg oral): 70.85%
- percent inhibition of macrophage infiltration [2, 3]: 51.00%
- percent inhibition of neutrophil infiltration [2, 3]: 73.69%
- percent inhibition of macrophage infiltration ([2]; 10 mg/kg oral): 69.11%
- percent inhibition of neutrophil infiltration ([2]; 10 mg/kg oral): 83.01%
- ED50 ([2]; Macrophage, oral, read-out: 50% inhibition (ED50) dose, macrophage infiltration): 3.5 mg/kg
- inhibition of macrophage infiltration [2, 4]: 26.55%
- inhibition of neutrophil infiltration [2, 4]: 44.42%
